Measurements from patent US20240368164A1, “PURINE NUCLEOSIDES, THEIR INTERMEDIATES, AND METHODS OF PREPARATION THEREOF” (Astrocyle Pharmaceuticals, Inc., priority 2021, published 2024).

Tests used:
[1] = test system: traumatic brain injury (TBI) in mice; assay: Mouse traumatic brain injury (TBI) model; format: in vivo
Description: Animals and traumatic brain injury (TBI): TBI is performed with a controlled closed skull injury model as described in Talley-Watts et al. 2012 (J. Neurotrauma 30, 55-66). Following the method described therein, a pneumatic impact device is used to generate a moderate TBI leaving the skull and dura matter intact. To achieve this, C57BL/6 mice are anesthetized with isoflurane (3% induction, 1% maintenance) in 100% oxygen. A body temperature of 37° C. is maintained using a temperature-controlled heated surgical table. A small midline incision is made on the scalp using aseptic surgical techniques. A 5 mm stainless steel disc is positioned on the skull and fixed using superglue on the right parietal bone between bregma and lamda over the somatosensory cortex. The mouse is then positioned on a stage directly under the pneumatic impact tip. […] Mice are placed in a Thermo-Intensive Care Unit (Braintree Scientific model FV-1; 37° C.; 27% O2) and monitored until fully awake and moving freely. […]
Western Blot Analysis for GFAP: At selected survival times, mice are anesthetized under isoflurane and sacrificed. […] The homogenate is transferred to a 2 mL tube and centrifuged at 1000 g for 10 minutes at 4° C. and the supernatant is collected and analyzed. Protein concentration is determined by the BCA assay using a 1:50 dilution. […]

A3 receptor in the mouse = biological target: T1, A3 receptor in the mouse (Mus musculus, UniProt Q61618); assay: Affinity at the mouse A3 receptor; format: binding
T1 sequence (Q61618 1-319): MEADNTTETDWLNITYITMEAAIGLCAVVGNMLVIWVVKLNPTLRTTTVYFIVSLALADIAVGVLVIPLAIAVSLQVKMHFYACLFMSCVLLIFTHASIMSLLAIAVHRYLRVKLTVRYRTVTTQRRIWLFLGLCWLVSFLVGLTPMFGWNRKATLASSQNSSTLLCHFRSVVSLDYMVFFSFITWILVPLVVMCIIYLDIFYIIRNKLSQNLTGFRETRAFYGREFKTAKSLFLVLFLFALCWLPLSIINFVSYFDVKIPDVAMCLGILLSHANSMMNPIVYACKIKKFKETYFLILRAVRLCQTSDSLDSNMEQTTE
Description: Similar competition binding assays may be conducted using HEK293 cell membranes expressing mARs using [^125I]I-AB-MECA to label A1 or A3ARs and [3H]CGS21680 to label A2AARs. IC50 values were converted to Ki values using known methods. Nonspecific binding was determined in the presence of 100 μM NECA.

With `CSc1nc(N)c2ncn([C@H]3[C@H](O)[C@H](O)[C@]4(CO)C[C@H]34)c2n1` [Compound I-1, (1R,2R,3S,4R,5S)-4-(6-Amino-2-(methylthio)-9H-purin-9-yl)-1-(hydroxymethyl)bicyclo[3.1.0]hexane-2,3-diol] the “efficacy in mouse TBI model” value [1] was “significant efficacy”, the “difference in affinity of I-1 and Cl-IB-MECA at mouse A3 receptor” value (A3 receptor in the mouse; I-1 versus Cl-IB-MECA) was “approximately 25,000 fold” and the Ki (A3 receptor in the mouse; mouse A3 receptor, read-out: affinity as agonist of the A3 receptor in the mouse) was 4.9 µM.
